This test addresses T1, human B1R receptor (hB1R) (Homo sapiens, UniProt P46663).
T1 construct: expressed in transfected cells; host or cells: CHO K1 cells
T1 sequence (P46663 1-353): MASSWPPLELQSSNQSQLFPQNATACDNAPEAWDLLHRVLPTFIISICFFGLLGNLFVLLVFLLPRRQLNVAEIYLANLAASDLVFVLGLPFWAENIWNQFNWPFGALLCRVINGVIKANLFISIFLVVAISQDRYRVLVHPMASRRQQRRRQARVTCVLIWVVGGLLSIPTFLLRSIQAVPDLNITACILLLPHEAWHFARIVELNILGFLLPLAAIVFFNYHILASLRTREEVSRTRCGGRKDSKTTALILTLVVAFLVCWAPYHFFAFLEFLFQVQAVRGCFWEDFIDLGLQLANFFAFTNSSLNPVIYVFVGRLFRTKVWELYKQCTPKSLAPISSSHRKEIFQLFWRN
Description: Functional investigation on the bradykinin 1 receptor (B1R), FLIPR Ca2+ assay, hB1R cells. The format is cell-based. To be noted: CHO K1 cells with human B1R, agonist Lys-Des-Arg9 bradykinin, % of maximum achievable inhibition; for inhibition at 10 µM: CHO-K1, 10 μM test substance, read-out: B1R antagonism, human [10 μM] % inhibition; for B1R antagonism, human [10 μM] % inhibition: 10 μM test substance. As for the experimental part: The agonistic or antagonistic action of substances can be quantified on the bradykinin 1 receptor (B1R) of the human and rat species with ectopically expressing cell lines (CHO K1 cells) and with the aid of a Ca^2+-sensitive dye (Fluo-4) using a fluorescent imaging plate reader (FLIPR). The indication in % activation is based on the Ca^2+ signal after addition of Lys-Des-Arg^9 bradykinin (0.5 nM) or Des-Arg^9 bradykinin (100 nM). Antagonists lead to a suppression of the Ca^2+ influx following administration of the agonist. The % inhibition in comparison with the maximum achievable inhibition is indicated.
1. Functional Investigation on the Bradykinin 1 Receptor (B1R)
The agonistic or antagonistic action of substances can be determined on the bradykinin 1 receptor (B1R) of the human and rat species with the following assay. According to this assay, the Ca^2+ inflow through the channel is quantified with the aid of a Ca^2+-sensitive dye (Fluo-4 type, Molecular Probes Europe BV, Leiden, Netherlands) in a fluorescent imaging plate reader (FLIPR, Molecular Devices, Sunnyvale, USA).
Chinese hamster ovary cells (CHO K1 cells) which are stably transfected with the human B1R gene (hB1R cells) or the B1R gene of the rat (rB1R cells) are used. For functional investigations these cells are plated-out onto black 96-well plates with a clear base (BD Biosciences, Heidelberg, Germany or Greiner, Frickenhausen, Germany) in a density of 20,000-35,000 cells/well. Overnight the cells are incubated at 37° C. and 5% CO2 in culture medium (hB1R cells: Ham's Nutrient Mixture F12, Gibco Invitrogen GmbH, Karlsruhe, Germany or DMEM, Sigma-Aldrich, Taufkirchen, Germany; rB1R cells: D-MEM/F12, Gibco Invitrogen, Karlsruhe, Germany) with 10 vol. % FBS (foetal bovine serum, Gibco Invitrogen GmbH, Karlsruhe, Germany or PAN Biotech GmbH, Aidenbach, Germany).
On the following day the cells are loaded with 2.13 μM Fluo-4 (Molecular Probes Europe BV, Leiden, Netherlands) in HBSS buffer (Hank's buffered saline solution, Gibco Invitrogen GmbH, Karlsruhe, Germany) with 2.5 mM probenecid (Sigma-Aldrich, Taufkirchen, Germany) and 10 mM HEPES (Sigma-Aldrich, Taufkirchen, Germany) for 60 min at 37° C. The plates are subsequently washed twice with HBSS buffer, and HBSS buffer which additionally contains 0.1% BSA (bovine serum albumin; Sigma-Aldrich, Taufkirchen, Germany), 5.6 mM glucose and 0.05% gelatine (Merck KGaA, Darmstadt, Germany) is added. After a further incubation of 20 minutes at room temperature, the plates are inserted into the FLIPR for Ca^2+ measurement.
Alternatively they are washed with buffer A (15 mM HEPES, 80 mM NaCl, 5 mM KCl, 1.2 mM CaCl2, 0.7 mM MgSO4, 2 g/l glucose, 2.5 mM probenecid) and loaded with buffer A with added 2.5 μM Fluo-4 and 0.025% Pluronic F127 (Sigma-Aldrich, Taufkirchen, Germany). The cells are then washed twice with buffer A and incubated for 30 minutes with buffer A, which additionally contains 0.05% BSA and 0.05% gelatine, at room temperature and then used for Ca^2+ measurement in the FLIPR. The Ca^2+-dependent fluorescence is measured here before and after addition of substances (λex=488 nm, λem=540 nm). The quantification is performed by measuring the highest fluorescence intensity (FC, fluorescence counts) over time.
The FLIPR protocol comprises two additions of substance. Test substances (10 μM) are first pipetted onto the cells and the Ca^2+ inflow is compared with the control (hB1R: Lys-Des-Arg^9 bradykinin>=50 nM; rB1R: Des-Arg^9 bradykinin 10 μM). The value in % activation based on the Ca^2+ signal after addition of Lys-Des-Arg^9 bradykinin (>=50 nM) or Des-Arg^9 bradykinin (10 μM) is obtained therefrom. After incubation for 10-20 minutes, Lys-Des-Arg^9 bradykinin (hB1R) or Des-Arg^9 bradykinin (rB1R) is applied in the EC80 concentration and the inflow of Ca^2+ is likewise determined.
Antagonists lead to a suppression of the Ca^2+ inflow. The % inhibition in comparison with the maximum achievable inhibition is calculated. […]

17 compounds from patent US8492559B2, “Substituted indole compounds” (Gruenenthal GmbH, priority 2009, dated 2013) can be followed below.

The inhibition is the drop in the measured response relative to a control, in per cent. As for `COc1cc(C)c(S(=O)(=O)Nc2cccc3ccn(CC(=O)N4CCC5(CC4)CCN(c4ccncc4)CC5)c23)c(C)c1` [G_CC-91, 4-Methoxy-2,6-dimethyl-N-[1-[2-oxo-2-(3-pyridin-4-yl-3,9-diazaspiro-[5.5]undecan-9-yl)-ethyl]-1H-indol-7-yl]-benzenesulfonic acid amide], the inhibition at 10 µM is 100%. On the same count and under the same terms, in the case of `O=C(Cn1ccc2ccc(N3Cc4cccc(Cl)c4C3=O)cc21)N1CCC2(CC1)CC(c1ccncc1)=NO2` [Compound G-15, 7-Chloro-2-(1-(2-oxo-2-(3-(pyridin-4-yl)-1-oxa-2,8-diazaspiro[4.5]dec-2-en-8-yl)ethyl)-1H-indol-6-yl)isoindolin-1-one] it was 81%; in that of `COc1cc(C)c(S(=O)(=O)Nc2cccc3ccn(CC(=O)N(C)CCCN4CCN(c5ccncc5)CC4)c23)c(C)c1` [G_CC-88, 2-[7-[[(4-Methoxy-2,6-dimethyl-phenyl)sulfonyl]amino]-1H-indol-1-yl]-N-methyl-N-[3-(4-pyridin-4-yl-piperazin-1-yl)-propyl]-acetamide], 100%. With `COc1cc(C)c(S(=O)(=O)Nc2cccc3ccn(CC(=O)N4CCC5(CC4)CC(c4ccncc4)=NO5)c23)c(C)c1` [Compound G-13, 4-Methoxy-2,6-dimethyl-N-(1-(2-oxo-2-(3-(pyridin-4-yl)-1-oxa-2,8-diazaspiro[4.5]dec-2-en-8-yl)ethyl)-1H-indol-7-yl)benzenesulfonic acid amide], the inhibition at 10 µM was found to be 73%. For the compound `Cc1cccc2c1C(=O)N(c1ccc3ccn(CC(=O)N4CCC5(CC4)CCN(c4ccncc4)CC5)c3c1)C2` [Compound G-26, 7-Methyl-2-[1-[2-oxo-2-(9-pyridin-4-yl-3,9-diazaspiro[5.5]undecan-3-yl)-ethyl]-1H-indol-6-yl]-2,3-dihydro-isoindol-1-one], the inhibition at 10 µM came to 98%. As for `Cn1c2c(c3c(Cl)cccc31)C(=O)N(c1ccc3ccn(CC(=O)N4CCC5(CC4)CCN(c4ccncc4)CC5)c3c1)C2` [Compound G-23, 8-Chloro-4-methyl-2-[1-[2-oxo-2-(9-pyridin-4-yl-3,9-diazaspiro[5.5]undecan-3-yl)-ethyl]-1H-indol-6-yl]-3,4-dihydro-2H-pyrrolo[3,4-b]indol-1-one], the inhibition at 10 µM stood at 100%.

Regarding `COc1cc(C)c(S(=O)(=O)Nc2cccc3ccn(CCC(=O)N4CCN(CC5CCN(C)CC5)CC4)c23)c(C)c1` [G_CC-43, 4-Methoxy-2,6-dimethyl-N-[1-[3-[4-[(1-methyl-piperidin-4-yl)-methyl]-piperazin-1-yl]-3-oxo-propyl]-1H-indol-7-yl]-benzenesulfonic acid amide], the inhibition at 10 µM worked out at 100%. `O=C(CCn1ccc2ccc(N3Cc4cccc(Cl)c4C3=O)cc21)N1CCC2(CC1)CCN(c1ccncc1)CC2` [G_CC-67, 7-Chloro-2-[1-[3-oxo-3-(3-pyridin-4-yl-3,9-diazaspiro[5.5]undecan-9-yl)-propyl]-1H-indol-6-yl]-2,3-dihydro-isoindol-1-one]: where the note is “10 µM”, the “B1R antagonism, human [10 μM] % inhibition” value is given as 99%. For `COc1cc(C)c(S(=O)(=O)Nc2cccc3ccn(CC(=O)N4CCC5(CCN(c6ccncc6)C5)C4)c23)c(C)c1` (centres unmarked) [Compound G-17, 4-Methoxy-2,6-dimethyl-N-(1-(2-oxo-2-(7-(pyridin-4-yl)-2,7-diazaspiro[4.4]nonan-2-yl)ethyl)-1H-indol-7-yl)benzenesulfonic acid amide], the inhibition at 10 µM was found to be 100%.

Turning to `COc1cc(C)c(S(=O)(=O)Nc2cccc3ccn(CC(=O)N4CCC(CCN5CCCC5)CC4)c23)c(C)c1` [Compound G-02, 4-Methoxy-2,6-dimethyl-N-[1-[2-oxo-2-[4-(2-pyrrolidin-1-yl-ethyl)-piperidin-1-yl]-ethyl]-1H-indol-7-yl]-benzenesulfonic acid amide], the inhibition at 10 µM came out at 95%.

Turning to `O=C(CCn1ccc2cccc(N3Cc4cccc(Cl)c4C3=O)c21)N1CCC2(CC1)CCN(c1ccncc1)CC2` [Compound G-10, 7-Chloro-2-(1-(3-oxo-3-(9-(pyridin-4-yl)-3,9-diazaspiro[5.5]undecan-3-yl)propyl)-1H-indol-7-yl)isoindolin-1-one], the inhibition at 10 µM is 100%.

Consider `Cc1ccc2n1C(=O)N(c1ccc3ccn(CC(=O)N4CCC5(CC4)CCN(c4ccncc4)CC5)c3c1)C2` [Compound G-27, 5-Methyl-2-[1-[2-oxo-2-(9-pyridin-4-yl-3,9-diazaspiro[5.5]undecan-3-yl)-ethyl]-1H-indol-6-yl]-1,2-dihydro-pyrrolo[2,1-e]imidazol-3-one], for which the inhibition at 10 µM was determined as 96%. On the same count and under the same terms, the value for `COc1cc(C)c(S(=O)(=O)Nc2cccc3ccn(CC(=O)N4CCC5(CCN(c6ccncc6)CC5)C4)c23)c(C)c1` [Compound G-14, 4-Methoxy-2,6-dimethyl-N-(1-(2-oxo-2-(8-(pyridin-4-yl)-2,8-diazaspiro[4.5]decan-2-yl)ethyl)-1H-indol-7-yl)benzenesulfonic acid amide] was 99%. Take `COc1cc(C)c(S(=O)(=O)Nc2cccc3ccn(CC(=O)N4CCC5(CC4)CCN(c4ccncc4)CC5)c23)c(C)c1` [Compound G-05, 4-Methoxy-2,6-dimethyl-N-[1-[2-oxo-2-(9-pyridin-4-yl-3,9-diazaspiro[5.5]undecan-3-yl)-ethyl]-1H-indol-7-yl]-benzenesulfonic acid amide]: the “B1R antagonism, human [10 μM] % inhibition” value was 100%.

`COc1cc(C)c(S(=O)(=O)Nc2cccc3ccn(CC(=O)N4CCC(N5CCc6cc(CN7CCCCC7)ccc6C5)C4)c23)c(C)c1` (centres unmarked) [Compound G-16, 4-Methoxy-2,6-dimethyl-N-(1-(2-oxo-2-(3-(6-(piperidin-1-ylmethyl)-3,4-dihydroisoquinolin-2(1H)-yl)pyrrolidin-1-yl)ethyl)-1H-indol-7-yl)benzenesulfonic acid amide]: the inhibition at 10 µM was determined as 100%. On the same count and under the same terms, in the case of `COc1cc(C)c(S(=O)(=O)Nc2cccc3ccn(CCC(=O)NCCC4CCN(c5ccncc5)CC4)c23)c(C)c1` [G_CC-47, 3-[7-[[(4-Methoxy-2,6-dimethyl-phenyl)sulfonyl]amino]-1H-indol-1-yl]-N-[2-(1-pyridin-4-yl-piperidin-4-yl)-ethyl]-propionamide] it was 100%. In the case of `O=C(Cn1ccc2ccc(N3CCn4c(c(Cl)c5ccccc54)C3=O)cc21)N1CCC2(CC1)CCN(c1ccncc1)CC2` [Compound G-31, 10-Chloro-2-[1-[2-oxo-2-(9-pyridin-4-yl-3,9-diazaspiro[5.5]undecan-3-yl)-ethyl]-1H-indol-6-yl]-3,4-dihydro-2H-pyrazino[1,2-a]indol-1-one], the inhibition at 10 µM was found to be 80%.
